In experiment [1] the test system is Plasmodium falciparum 3D-7 (chloroquine-sensitive strain). Nature of the experiment: In vitro antiplasmodial activity assay, microscopic method, strain 3D-7. The class given is cell-based. To be noted: Plasmodium falciparum. How it is done: (§1) The test of antiplasmodial activity began with the culture of P. falciparum 3D-7 and FCR-3 using the modified Trager and Jensen method. The plasmodium was cultured in human O red blood cells diluted to 3% haematocrit in RPMI 1640 medium complemented with 10% human O serum. The medium was made by adding 10.43 g of powder RPMI 1640, 6 g HEPES, 2 g NaHCO3, 25 mg gentamycin, and sterile distilled water up to 1 L. The medium pH was adjusted so that it reached ±7.2. It was sterilized using a 0.22 μm filter and stored at 4°C. The complete plasmodium culture medium was made by adding human serum with a concentration of 10% in the medium. The plasmodium culture was incubated in candle jar in an incubator with a temperature of 37°C and was observed every 24 hours.
(§2) The plasmodium was synchronized to obtain the ring stage by adding 5% of D-sorbitol. The plasmodium was transferred from culture flask to a conical tube, and then it was centrifuged with a speed of 1000 rpm for 10 minutes. After the supernatant was disposed, the sterile 5% sorbitol was added and incubated for 10 minutes at a temperature of 37°C. The plasmodium suspension was centrifuged again; the supernatant was disposed and the plasmodium was washed by adding culture medium. Then, the plasmodium suspension was centrifuged again, and the supernatant was discarded, resulting in a plasmodium in ring stage only. The parasitemia was calculated from a thin blood preparation. The test used 1% parasitemia at 2% haematocrit in RPMI medium which complemented with 10% human O serum.
(§3) Each testing compound was dissolved in RPMI medium. The testing compound in various concentrations with volume of 100 μL was incorporated into the 96-well microplate, and then 100 μL of Plasmodium suspension was added. Each series of concentrations was replicated three times. The microplate was incubated at a temperature of 37°C for 72 hours. At the end of the incubation, a thin blood smear was made using 10% Giemsa stain and observed under a light microscope at 1000x magnification. The percentage of parasitemia (counting a minimum of 1,000 erythrocytes) was calculated from the preparation of thin blood and then used to calculate the percentage of plasmodium growth inhibition. […] Antiplasmodial activity is expressed as IC50, which is the concentration of a compound that is required for 50% inhibition of plasmodium growth. The IC50 value was calculated by probit analysis using SPSS software (IBM Corp., Chicago). The lower the IC50 value obtained, the greater the antiplasmodial activity.

In experiment [2] the test system is formation of β-hematin (heme polymerization). Nature of the experiment: In vitro heme polymerization inhibitory activity (HPIA) assay. The class given is biochemical. The protocol: The heme polymerization inhibitory activity (HPIA) was conducted according to Basilico et al.'s modified method. The 100 μL of 1 mM hematin in 0.2 M NaOH was added into a microtube. […] Distilled water was used as a negative control. The 50 μL solution of glacial acetic acid (pH 2.6) was added into the microtube to initiate the polymerization reaction and incubated at a temperature of 37°C for 24 hours. Microtubes were centrifuged at 8000 rpm for 10 minutes and the supernatant was discarded and then washed three times using the 200 μL dimethyl sulfoxide (DMSO).Then, the deposition of the hematin crystal was dissolved with 200 μL of 0.1 M NaOH and 100 μL of solution was added into the 96-well microplate.
Absorbance was read using ELISA reader at λ 405 nm. A standard curve was made to illustrate the relationship between the concentration of hematin and its absorbance. The various concentrations of hematin (250; 125; 62.5; 31.25; 15.6; 7.8; and […]) were used to make the standard curve. The heme polymerization inhibition was expressed as IC50, which is the concentration of testing compounds that can inhibit 50% of the formation of β-hematin. The IC50 value was calculated by probit analysis using SPSS software (IBM Corp., Chicago).

Experiment [3] has as its system Plasmodium falciparum FCR-3 (chloroquine-resistant strain). Nature of the experiment: In vitro antiplasmodial activity assay, microscopic method, strain FCR-3. Type of experiment: cell-based. To be noted: Plasmodium falciparum. The protocol:
as §1, §2, §3

Experiment [4] relates to formation of β-hematin (heme polymerization). To be noted: read-out: IC50 of chloroquine for heme polymerization inhibition, reference value; threshold reference value; cited from earlier work.
[5] abbreviates: read-out: Growth inhibition of P. falciparum Strain 3D-7.
The mark [6] stands for this setting: FCR3, read-out: Growth inhibition of P. falciparum Strain FCR-3.

The source of these data is paper PMC8026324, “In Vitro Antiplasmodial, Heme Polymerization, and Cytotoxicity of Hydroxyxanthone Derivatives” (Journal of Tropical Medicine, 2021).

Usually IC50 stands for the point on the concentration scale where inhibition reaches its midpoint. As a reminder, the inhibition is the relative decrease from the control value, in per cent.

Read-outs that look alike come from different tables or passages of the source.

With `CCN(CC)CCCC(C)Nc1ccnc2cc(Cl)ccc12` (stereo not drawn) [Chloroquine, reference compound], the IC50 in experiment [1] (72 h, read-out: IC50 on P. falciparum 3D-7) is 0.01 ± 0.001 µM; in experiment [2] (24 hours, 37°C, glacial acetic acid pH 2.6), 1480 µM; in experiment [3] (FCR3, 72 h, read-out: IC50 on P. falciparum FCR-3) it was 0.11 ± 0.052 µM; in experiment [4], 37500 µM. For the same molecule, the inhibition at 0.008 µM turned out to be 54.4 ± 12.4% in experiment [1] (setting [5]) and 18.7 ± 9.23% in experiment [3] (setting [6]). Besides, the results for the inhibition at 0.016 µM in experiment [1] (setting [5]) and in experiment [3] (setting [6]) were 96.4 ± 1.13% and 78.6 ± 4.51%, respectively. In addition, the inhibition at 0.023 µM in experiment [1] (setting [5]) came out at 96.6 ± 1.33%; in experiment [3] (setting [6]), 79.9 ± 3.86%. In addition, the values for the inhibition at 0.029 µM in experiment [1] (setting [5]) and in experiment [3] (setting [6]) were 97.49 ± 0.517% and 82.6 ± 2.94%, respectively. Also, the inhibition at 0.037 µM in experiment [1] (setting [5]) is 97.77 ± 0.69%; in experiment [3] (setting [6]), 84.2 ± 2.45%. Besides, the “Inhibition of β-hematin” value in experiment [2] (compound 0.601 mM) turned out to be 29.080%; in experiment [2] (compound 1.221 mM), 47.315%; in experiment [2] (compound 2.423 mM), 56.379%; in experiment [2] (compound 4.846 mM) it was 79.906%; in experiment [2] (compound 9.692 mM) it was 88.604%. In addition, the β-Hematin formed in experiment [2] (compound 0.601 mM) was determined as 77.787 mM; in experiment [2] (compound 1.221 mM), 57.787 mM; in experiment [2] (compound 2.423 mM), 47.845 mM; in experiment [2] (compound 4.846 mM), 22.040 mM; in experiment [2] (compound 9.692 mM), 12.500 mM.
